From patent publication US9669242B2, “Compositions containing at least two phenolic compounds, a lipid-soluble antioxidant and at least one hydrotrope for cosmetic use” (L'OREAL, priority 2013, dated 2017)
Where two headings read alike, the source gives them in different places. Values belong to the compound of their own block, whether it stands above or below them.

Tests used:
[1] = pH stability of baicalin in water; format: physicochemical
[2] = Solubility of phenolic compounds and caffeine in water without hydrotropes; details: for solubility: in water
Text: Baicalin, a component of Chinese medicinal herb Huang-chin, is a flavone, a type of flavonoid.

[3] = Oxygen Radical Absorbance Capacity (ORAC) assay; format: biochemical; details: individual values, known activity of each antioxidant
[4] = Solubility of baicalin in organic solvent PEG-4; format: physicochemical
Text: Crystallization or precipitation occurs after mixing the glycol phase and water phase.

[5] = HORAC assay (hydroxyl radical averting capacity); format: biochemical; details: individual values, known activity of each antioxidant
[6] = Solubility in water with hydrotropes (nicotinamide, caffeine); details: 5% nicotinamide and 5% caffeine

Compound: O=C(O)[C@H]1O[C@@H](Oc2cc3oc(-c4ccccc4)cc(=O)c3c(O)c2O)[C@H](O)[C@@H](O)[C@@H]1O [Baicalin]
pH at which degradation happens [1]: > 5
solubility in water ([2]; at its natural pH ~4.5): < 0.01%
solubility ([2]; pH 3): 0.0016%
solubility ([2]; pH 3.5): 0.0021%
solubility ([2]; pH 4): 0.0040%
solubility ([2]; pH 4.5): 0.0084%
solubility ([2]; pH 5): 0.035%
water solubility ([2]; no hydrotrope): < 0.01%
Solubility in water without hydrotropes ([2]; without hydrotropes): <0.01 % (w/w)
ORAC [3]: 4759 μmolTE/g
baicalin dissolved by PEG-4 [4]: 3%
HORAC [5]: 2592 μmolGAE/g

Solubility in water without hydrotropes [2]: <0.001 % (w/w)
Compound: O=c1oc2c(O)c(O)cc3c(=O)oc4c(O)c(O)cc1c4c23 [Ellagic acid]

Solubility in water without hydrotropes [2]: <0.05 % (w/w)
Compound: COc1ccc([C@@H]2CC(=O)c3c(O)cc(O[C@@H]4O[C@H](CO)[C@@H](O)[C@H](O)[C@H]4O[C@@H]4O[C@@H](C)[C@H](O)[C@@H](O)[C@H]4O)cc3O2)cc1O [Neohesperidin]

Solubility in water without hydrotropes [2]: <0.005 % (w/w)
Compound: Oc1ccc(C=Cc2cc(O)cc(O)c2)cc1 [Resveratrol]

Solubility in water with hydrotropes [6]: >1 % (w/w)
Solubility in water without hydrotropes ([2]; without hydrotropes): <0.1 % (w/w)
Compound: O=C1c2c(O)cc(O)cc2O[C@H](c2ccc(O)c(O)c2)[C@H]1O [Taxifolin]

Compound: tocopherol [VIT. E (tocopherol)]
ORAC [3]: 1000 μmolTE/g
